Patent US6458781B1, “Substituted diarylalkyl amides as calcium channel antagonists” (priority 1998, dated 2002)
pIC50: −log10 of the molar value. Read-outs that look alike come from different tables or passages of the source.

Experiments:
[1] = target: T1, N-type calcium channels in IMR-32 cells (Homo sapiens, UniProt Q00975); experiment: N-type Ca2+ channel blocking potency in IMR-32 cells using Indo-1; type: cell-based; settings: for inhibition at 1 µM / inhibition at 10 µM: IMR-32, IMR-32 cells; for inhibition at 1 µM: read-out: IMR32 % blockage at 1 μM; for inhibition at 10 µM: read-out: IMR32 % blockage at 10 μM; for pIC50: IMR-32 cells
T1 construct: host or cells: IMR-32 cells differentiated with dibutyryl cAMP and bromodeoxyuridine
Experimental: Measurement of N-type Ca^2+ Channel Blocking Potencies of Compounds in IMR-32 Cells Using the Fluorescent Ca^2+ Indicator Indo-1
IMR-32 cells are a human tumoral cell line of neural origin. […] Calcium flux into these cells may be induced by stimulation with elevated potassium concentrations. The L-channel component of calcium flux may be blocked by adding 5 μM nitrendipine. The remaining component of calcium entry into the IMR-32 cells is due to calcium flux through N-type calcium channels. Intracellular calcium concentrations are measured using the fluorescent calcium indicator Indo-1. The effect of drug concentration on calcium uptake is studied.
The IMR-32 cell line was obtained from the American Type Culture Collection (Rockville, Md.). Cells were grown in Eagle's Minimum Essential Medium with Earle's salts supplemented with 10% fetal bovine serum, 2 mM L-Gln and antibiotic/antimycotic mixture (Gibco). At approximately 80% confluency, differentiation was induced by the addition of 1 mM dibutyryl cAMP and 2.5 μM bromodeoxyuridine to the medium. After 7 to 13 days of differentiation, cells were detached using 0.5 mM EDTA and loaded with 5 μM Indo-1 acetoxymethyl ester (Molecular Probes, Eugene, Oreg.) at 30° C. for 45 minutes. Loaded cells were washed twice, resuspended (˜10^7 cells/mL) in assay buffer (10 mM HEPES/Tris pH 7.4 in Hank's Balanced Salt Solution without bicarbonate or phenol red containing 0.5% bovine serum albumin) and kept on ice until use. Fluorescence measurements were carried out in a Photon Technology International (PTI, South Brunswick, N.J.) Model RF-F3004 spectrofluorometer with dual emission monochromators using excitation at 350 nm and emission at 400 and 490 nm. The instrument was equipped with a thermostated cuvette holder with stirring capabilities as well as with a computer-controlled pump which allowed for reagent addition during measurement. Instrument control and data collection was done by PTI's OSCAR software running on an IBM compatible computer. Different concentrations of the test compounds (60 μL in dimethyl sulfoxide) were added to 5.94 mL of assay buffer containing approximately 3×10^6 loaded cells, and 5 μM Nitrendipine (in 30 μL EtOH) to block L-type Ca^2+ channels. Samples were incubated for 10 minutes at 30° C. and the aliquot into three 10×10 mm disposable acrylic cuvettes. Emission signals at 400 and 490 nm were acquired from each cuvette at 30° C. for 50 seconds. At 20 seconds after the start of reading, cells were depolarized by the addition of 160 μL of stimulation solution (1 M KCl, 68 mM CaCl2) to the cuvette via the computer-controlled pump. Ratio of dual emission signals (400/490 nm), which is proportional to intracellular Ca^2+ concentration, was plotted against time, and the difference between maximal response after stimulation and basal value (before stimulation) was determined. Values obtained in this way were plotted as a function of drug concentration. IC50 values of test compounds were calculated by fitting a four-parameter logistic function to the data using the least squares method.

[2] = target: T2, L-type calcium channels in A10 cells (Rattus norvegicus, UniProt P22002); experiment: L-type Ca2+ channel blocking potency in A10 cells (FLIPR); type: cell-based; settings: read-out: FLPA10 IC50
T2 construct: which endogenously expresses L-type calcium channels; host or cells: A10 rat embryonic thoracic aorta smooth muscle cells
T2 sequence (P22002 whole entry): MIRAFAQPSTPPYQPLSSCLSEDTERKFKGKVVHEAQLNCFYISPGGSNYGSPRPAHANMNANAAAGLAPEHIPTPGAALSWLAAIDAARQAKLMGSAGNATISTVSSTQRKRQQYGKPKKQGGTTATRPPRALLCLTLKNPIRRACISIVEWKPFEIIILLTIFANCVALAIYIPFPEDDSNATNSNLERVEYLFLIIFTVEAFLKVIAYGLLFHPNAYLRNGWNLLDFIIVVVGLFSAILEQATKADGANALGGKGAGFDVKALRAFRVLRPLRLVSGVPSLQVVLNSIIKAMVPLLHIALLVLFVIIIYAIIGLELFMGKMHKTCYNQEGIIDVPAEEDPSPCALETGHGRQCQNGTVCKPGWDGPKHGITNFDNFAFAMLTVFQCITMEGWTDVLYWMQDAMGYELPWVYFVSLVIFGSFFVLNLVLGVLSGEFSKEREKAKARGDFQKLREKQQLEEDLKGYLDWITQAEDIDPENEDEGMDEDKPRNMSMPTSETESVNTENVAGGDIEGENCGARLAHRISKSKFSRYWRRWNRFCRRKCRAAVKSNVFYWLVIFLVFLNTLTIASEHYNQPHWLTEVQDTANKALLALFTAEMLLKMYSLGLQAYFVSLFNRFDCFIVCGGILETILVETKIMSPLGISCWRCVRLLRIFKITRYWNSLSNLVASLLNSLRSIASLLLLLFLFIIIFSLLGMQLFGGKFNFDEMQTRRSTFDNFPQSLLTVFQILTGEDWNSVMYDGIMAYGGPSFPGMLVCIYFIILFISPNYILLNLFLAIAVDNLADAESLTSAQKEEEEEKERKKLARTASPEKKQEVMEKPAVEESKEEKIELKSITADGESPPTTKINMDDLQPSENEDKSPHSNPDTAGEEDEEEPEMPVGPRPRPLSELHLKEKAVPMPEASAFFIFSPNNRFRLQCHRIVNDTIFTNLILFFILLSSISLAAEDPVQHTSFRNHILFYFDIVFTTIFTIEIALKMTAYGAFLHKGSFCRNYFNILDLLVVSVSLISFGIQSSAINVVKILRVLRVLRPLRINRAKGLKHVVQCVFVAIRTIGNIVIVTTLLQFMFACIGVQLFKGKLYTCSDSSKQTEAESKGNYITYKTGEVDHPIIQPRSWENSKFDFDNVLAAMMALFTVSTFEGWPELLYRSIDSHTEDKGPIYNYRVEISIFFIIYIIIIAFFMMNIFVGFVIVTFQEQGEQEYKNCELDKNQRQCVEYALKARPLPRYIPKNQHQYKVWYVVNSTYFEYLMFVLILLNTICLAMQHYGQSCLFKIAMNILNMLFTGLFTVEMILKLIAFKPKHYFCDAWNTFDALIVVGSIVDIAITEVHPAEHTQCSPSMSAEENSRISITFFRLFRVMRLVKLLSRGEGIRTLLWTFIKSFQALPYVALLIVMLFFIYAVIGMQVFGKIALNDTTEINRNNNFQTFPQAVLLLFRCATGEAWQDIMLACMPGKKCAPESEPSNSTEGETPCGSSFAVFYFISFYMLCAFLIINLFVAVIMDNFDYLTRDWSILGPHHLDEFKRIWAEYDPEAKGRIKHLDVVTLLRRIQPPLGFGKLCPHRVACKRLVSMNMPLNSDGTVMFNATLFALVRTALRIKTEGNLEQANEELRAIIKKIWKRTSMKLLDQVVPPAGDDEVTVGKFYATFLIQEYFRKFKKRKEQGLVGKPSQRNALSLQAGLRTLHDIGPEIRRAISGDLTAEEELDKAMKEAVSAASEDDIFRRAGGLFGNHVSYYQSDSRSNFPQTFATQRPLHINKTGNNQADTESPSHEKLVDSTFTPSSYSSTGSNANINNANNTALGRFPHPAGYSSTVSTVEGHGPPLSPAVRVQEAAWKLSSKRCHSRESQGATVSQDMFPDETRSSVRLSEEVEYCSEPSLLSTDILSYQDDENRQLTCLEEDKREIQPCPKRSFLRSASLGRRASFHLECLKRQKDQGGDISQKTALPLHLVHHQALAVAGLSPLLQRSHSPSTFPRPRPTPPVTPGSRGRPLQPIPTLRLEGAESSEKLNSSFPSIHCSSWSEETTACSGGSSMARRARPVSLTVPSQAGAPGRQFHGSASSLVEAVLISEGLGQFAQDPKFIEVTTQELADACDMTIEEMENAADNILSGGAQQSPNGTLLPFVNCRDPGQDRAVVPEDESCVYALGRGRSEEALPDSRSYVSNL
T2 sequence (P54290 25-944 partner limits assumed): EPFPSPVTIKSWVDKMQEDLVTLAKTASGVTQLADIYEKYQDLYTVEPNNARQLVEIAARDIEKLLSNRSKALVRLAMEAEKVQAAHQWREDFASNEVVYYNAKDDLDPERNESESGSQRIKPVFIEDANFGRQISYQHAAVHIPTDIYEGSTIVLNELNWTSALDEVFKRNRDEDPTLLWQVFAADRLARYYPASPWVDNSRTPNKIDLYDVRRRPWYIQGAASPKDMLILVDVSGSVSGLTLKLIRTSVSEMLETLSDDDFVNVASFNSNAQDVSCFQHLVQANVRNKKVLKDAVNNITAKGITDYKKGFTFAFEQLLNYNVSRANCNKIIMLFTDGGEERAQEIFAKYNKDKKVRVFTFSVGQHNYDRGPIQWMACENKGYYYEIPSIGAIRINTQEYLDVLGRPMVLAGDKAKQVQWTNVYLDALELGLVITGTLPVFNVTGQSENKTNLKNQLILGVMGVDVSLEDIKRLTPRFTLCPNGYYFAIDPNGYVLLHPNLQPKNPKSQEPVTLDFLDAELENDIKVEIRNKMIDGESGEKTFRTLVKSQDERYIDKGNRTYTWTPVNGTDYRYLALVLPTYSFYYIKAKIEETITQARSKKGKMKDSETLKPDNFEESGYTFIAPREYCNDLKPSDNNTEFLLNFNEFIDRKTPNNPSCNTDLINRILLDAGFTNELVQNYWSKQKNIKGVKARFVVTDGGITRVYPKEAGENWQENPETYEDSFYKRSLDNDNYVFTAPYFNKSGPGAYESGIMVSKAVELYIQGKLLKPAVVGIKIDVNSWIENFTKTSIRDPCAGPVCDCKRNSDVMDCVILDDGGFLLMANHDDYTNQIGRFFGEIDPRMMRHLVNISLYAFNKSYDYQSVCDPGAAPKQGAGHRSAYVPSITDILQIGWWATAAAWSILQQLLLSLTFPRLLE
T2 sequence (P54290 945-1091 partner limits assumed): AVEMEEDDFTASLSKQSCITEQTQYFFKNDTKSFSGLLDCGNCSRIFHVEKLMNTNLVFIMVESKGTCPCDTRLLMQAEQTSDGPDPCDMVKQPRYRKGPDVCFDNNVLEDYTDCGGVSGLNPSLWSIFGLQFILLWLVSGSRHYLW
T2 sequence (P54287 whole entry partner): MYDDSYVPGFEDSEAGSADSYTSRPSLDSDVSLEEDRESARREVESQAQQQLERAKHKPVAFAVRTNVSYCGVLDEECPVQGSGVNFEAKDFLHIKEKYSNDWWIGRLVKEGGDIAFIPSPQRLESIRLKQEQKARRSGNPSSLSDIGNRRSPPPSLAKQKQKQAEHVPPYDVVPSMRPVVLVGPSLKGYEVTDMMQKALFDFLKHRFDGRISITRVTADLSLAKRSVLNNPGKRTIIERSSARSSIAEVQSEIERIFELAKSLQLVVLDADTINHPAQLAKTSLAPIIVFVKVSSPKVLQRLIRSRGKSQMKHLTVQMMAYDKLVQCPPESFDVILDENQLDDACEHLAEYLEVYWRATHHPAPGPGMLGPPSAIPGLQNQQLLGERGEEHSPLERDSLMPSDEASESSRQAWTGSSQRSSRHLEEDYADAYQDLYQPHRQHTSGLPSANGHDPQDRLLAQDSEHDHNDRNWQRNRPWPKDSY
Experimental: Measurement of L-type Ca^2+ Channel Blocking Potencies of Compounds in A10 Cells
Calcium flux through voltage-sensitive calcium channels was assessed by time-resolved monitoring of the fluorescence of pre-loaded calcium-sensitive dyes using FLIPR, a fluorescent image plate reader (Molecular Devices Co.). The A10 smooth muscle cell line derived from embryonic thoracic aorta of the DBIX rat (ATCC, CRL-1476) which endogenously expresses L-type calcium channels. The growth media for A10 cells was Ham's F12/DME high glucose (Irvine Scientific, 9052), supplemented with 20% fetal bovine serum (HyClone Labs, A-1115-L), and 1% each of L-glutamine and antibiotic-antimycotic (same source as above).
Cells were grown to confluency and replated on black-sided 96-well plates (Costar, 3603) for use in FLIPR. Two days after replating, growth media was removed and cells were loaded at 37° C. with 100 μL media containing 1 μM Oregon Green 488 Bapta-1 dye (Molecular Probes, O-6807) for 1 to 3 hours. The dye-containing media was then washed away with buffer (composition in mM: 1.25 CaCl2, 1.2 MgSO4, 11 glucose, 10 HEPES, 3.0 KCl, 137.0 NaCl, pH 7.4 with Tris base) in a Denley Cellwash (Labsystems, CW018B). The residual buffer volume was adjusted to 50 μL. A 5 minute drug-pre-incubation period at 35° C. was initiated when 50 μL of drug-containing buffer was pipetted into the cell plate with the 96-well pipettor integrated in the FLIPR apparatus. Fluorescent counts were monitored at 20 second intervals for 360 seconds, beginning 60 seconds prior to the delivery of drug-containing buffer. Following drug addition, 100 μL aliquots of a high K^+, depolarizing stimulus (composition in mM: 1.25 CaCl2, 1.2 MgSO4, 11 glucose, 10 HEPES, 140.0 KCl, pH 7.4 with Tris base) were added to each well, and fluorescence was monitored at 1 second intervals for 120 seconds beginning 10 seconds prior to the stimulus addition. CCD camera exposure time was 0.4 seconds, laser excitation was at 488 nm with a power of 0.2-0.5W, and a 510 to 560 nm bandpass interference filter preceded the camera.
Data was analyzed as a summation of fluorescent counts above basal during the stimulation period (an approximation of area under the curve), after normalizing the data with a spatial uniformity correction (for variations in laser illumination and cell density) and a negative control correction (zero calcium increase defined as the fluorescence reading in the presence of saturating pharmacologic block of the respective calcium channel). Drug effects were expressed as percent inhibition of fluorescence from an average of 8 K^+-stimulated wells which were pre-treated in the drug incubation period with buffer only. In the A10 cells, the pharmacologic agent used to define zero calcium influx was nitrendipine (RBI, N-144) at a final concentration of 1.0×10^−6 M.

[3] = estimated from two data points, read-out: IMR32 IC50 (estimated IC50 values based on two data points)

| Structure (SMILES) | inhibition at 1 µM [1] [%] | inhibition at 10 µM [1] [%] | pIC50 [2] | melting point [°C] | pIC50 [1, 3] | pIC50 ([1]; 5 μM nitrendipine present, read-out: IMR32 IC50) |
| --- | --- | --- | --- | --- | --- | --- |
| CC(C)CC(NC(=O)N1CCN(C)CC1)C(=O)N1CCN(C(c2ccc(F)cc2)c2ccc(F)cc2)CC1 (stereo in doubt) [Example 47, (S)-4-Methyl-piperazine-1-carboxylic acid (1-{4-[bis-(4-fluoro-phenyl)-methyl]-piperazine-1-carbonyl}-3-methyl-butyl)-amide] | 13 | 54 | 5.77 | 65 to 78 | – | – |
| CC(C)C[C@@H](C(=O)NCCC(c1ccccc1)c1ccccc1)N1CCCCC1.Cl [Example 24, (S)-4-Methyl-2-piperidin-1-yl-pentanoic acid (3,3-diphenyl-propyl)-amide monohydrochloride] | 35 | 89 | 5.82 | 58 to 65 | – | – |
| CC(C)C[C@H](NC(=O)N1CCN(C)CC1)C(=O)NCCCC(c1ccc(F)cc1)c1ccc(F)cc1 [Example 29, (S)-4-Methyl-piperazine-1-carboxylic acid {1-[4,4-bis-(4-fluoro-phenyl)-butylcarbamoyl]-3-methyl-butyl)-amide] | 22 | 82 | 5.92 | 73 to 91 | – | – |
| C[C@H](NC(=O)N1CCCCCC1)C(=O)NCCCC(c1ccc(F)cc1)c1ccc(F)cc1 [Example 30, (S)-Azepane-1-carboxylic acid {1-[4,4-bis-(4-fluoro-phenyl)-butylcarbamoyl]-ethyl}-amide] | 39 | 100 | 5.89 | 29 to 49 | – | – |
| O=C(CNC(=O)N1CCCCCC1)N1CCN(C(c2ccc(F)cc2)c2ccc(F)cc2)CC1 [Example 32, (S)-Azepane-1-carboxylic acid (2-{4-[bis-(4-fluoro-phenyl)-methyl]-piperazin-1-yl}-2-oxo-ethyl)-amide] | – | – | 5.74 | 66 to 86 | – | 6.33 |
| CC(C)C[C@@H](C(=O)N1CCN(C(c2ccc(F)cc2)c2ccc(F)cc2)CC1)N1CCOCC1 [Example 42, (S)-1-{4-[Bis-(4-fluoro-phenyl)-methyl]-piperazin-1-yl}-4-methyl-2-morpholin-4-yl-pentan-1-one] | – | – | 5.70 | 55 to 63 | 5.47 | – |
| CC(C)C[C@H](NCc1ccc(C(C)(C)C)cc1)C(=O)N1CCN(C(c2ccc(F)cc2)c2ccc(F)cc2)CC1 [Example 58, (S)-1-{4-[Bis-(4-fluoro-phenyl)-methyl]-piperazin-1-yl}-2-(4-tert-butyl-benzylamino)-4-methyl-pentan-1-one] | – | – | < 5.52 | 57 to 62 | – | – |
| CC(C)C[C@H](NCc1ccc(OC(C)(C)C)cc1)C(=O)N1CCN(C(c2ccc(F)cc2)c2ccc(F)cc2)CC1 [Example 64, (S)-1-{4-[Bis-(4-fluoro-phenyl)-methyl]-piperazin-1-yl}-2-(4-tert-butoxy-benzylamino)-4-methyl-pentan-1-one] | – | – | 7.05 | 56 to 61 | – | – |

Continued by rising pIC50 [2], values first:

| inhibition at 1 µM [1] [%] | inhibition at 10 µM [1] [%] | pIC50 [2] | melting point [°C] | pIC50 [1, 3] | pIC50 ([1]; 5 μM nitrendipine present, read-out: IMR32 IC50) | Structure (SMILES) |
| --- | --- | --- | --- | --- | --- | --- |
| – | – | 6.03 | 63 to 73 | 5.82 | – | CC(C)C[C@H](NC(=O)N1CCCCCC1)C(=O)N1CCN(C2c3ccccc3-c3ccccc32)CC1 [Example 45, (S)-Azepane-1-carboxylic acid {1-[4-(9H-fluoren-9-yl)-piperazine-1-carbonyl]-3-methyl-butyl}-amide] |
| – | – | 6.11 | 56 to 65 | 5.64 | – | CC(C)C[C@@H](C(=O)N1CCN(C(c2ccc(F)cc2)c2ccc(F)cc2)CC1)N(C)C1CCOCC1 [Example 41, (S)-1-{4-[Bis-(4-fluoro-phenyl)-methyl]-piperazin-1-yl}-4-methyl-2-[methyl-(tetrahydro-pyran-4-yl)-amino]-pentan-1-one] |
| – | – | 6.36 | 64 to 77 | 6.33 | – | CCC(C)[C@H](NC(=O)N1CCCCCC1)C(=O)N1CCN(C(c2ccc(F)cc2)c2ccc(F)cc2)CC1 (stereo partly drawn) [Example 43, (S)-Azepane-1-carboxylic acid (1-{4-[bis-(4-fluoro-phenyl)-methyl]-piperazine-1-carbonyl}-2-methyl-butyl)-amide] |
| – | – | 6.52 | 83 to 91 | 6.39 | – | CC(C)C[C@H](NC(=O)N1CCN(c2ccccc2)CC1)C(=O)N1CCN(C(c2ccc(F)cc2)c2ccc(F)cc2)CC1 [Example 44, (S)-4-Phenyl-piperazine-1-carboxylic acid (1-{4-[bis-(4-fluoro-phenyl)-methyl]-piperazine-1-carbonyl}-3-methyl-butyl)-amide] |
| – | – | 6.57 | 50 to 60 | 6.21 | – | CCC(C)[C@H](NC(=O)N1CCCCCC1)C(=O)NCCCC(c1ccc(F)cc1)c1ccc(F)cc1 (stereo partly drawn) [Example 16, (S)-Azepane-1-carboxylic acid {1-[4,4-bis-(4-fluoro-phenyl)-butylcarbamoyl]-2-methyl-butyl}-amide] |
| – | – | 6.62 | 32 to 50 | 6.08 | – | CC(C)[C@H](NC(=O)N1CCCCCC1)C(=O)NCCCC(c1ccc(F)cc1)c1ccc(F)cc1 [Example 26, (S)-Azepane-1-carboxylic acid {1-[4,4-bis-(4-fluoro-phenyl)-butylcarbamoyl]-2-methyl-propyl}-amide] |
| 49 | 94 | 6.80 | 52 to 70 | – | – | CC(C)C[C@@H](C(=O)NCCCC(c1ccc(F)cc1)c1ccc(F)cc1)N1CCCCC1 [Example 22, (S)-4-Methyl-2-piperidin-1-yl-pentanoic acid [4,4-bis-(4-fluoro-phenyl)-butyl]-amide] |
| – | – | 7.13 | 138 to 141 | 5.70 | – | CC(C)C[C@H](NC(=O)N1CCN(c2ccccc2)CC1)C(=O)NCCCC(c1ccc(F)cc1)c1ccc(F)cc1 [Example 17, (S)-4-Phenyl-piperazine-1-carboxylic acid {1-[4,4-bis-(4-fluoro-phenyl)-butylcarbamoyl]-3-methyl-butyl}-amide] |
